One data set deals with T1, human β3-AR (Homo sapiens, UniProt P13945).
T1 construct: Full-length β3-AR clones (402 amino acids) containing the last 6 amino acids of hβ3-AR; expressed in transfected cells; host or cells: CHO cells
The data set can be described thus: cAMP accumulation (SPA) in CHO cells transfected with human β3-AR. Format: cell-based. Conditions: for EC50: CHO cells transfected with human β3-AR, cAMP, 30 min at 37° C., 10^-9 M to 10^-5 M; for IA(β3): maximal response of compound relative to maximal response of isoproterenol at 10^-5 M. On the procedure:
Binding to the receptors was measured in Chinese Hamster ovary (CHO) cells that were transfected with β1-, β2-, and β3-AR's. The following briefly summarizes the procedures used and results obtained. Cloning of Human β3-AR Genomic DNA: cDNA was constructed by ligating four polymerase chain reaction (PCR) products using the following primers: an ATG-Narl fragment, sense primer [NT] and anti-sense primer [NT]; a […] fragment, [NT] as sense and [NT] as anti-sense primer; an […] fragment, sense primer [NT] and anti-sense primer [NT] and a Styl-TAG fragment, with sense primer [NT] and anti-sense primer [NT]. The corresponding primer sequences are described in Mantzoros, C. S., et.al., Diabetes, 1996, 45, 909-914. The four fragments are ligated into a pUC 18 plasmid (Gibco-BRL) and sequenced. Full-length β3-AR clones (402 amino acids) containing the last 6 amino acids of hβ3-AR are prepared with the β3-β[…]3 from ATTC. Binding Procedure: Clones expressing receptor levels of 70 to 110 fmoles/mg protein were used in the test procedures. CHO cells were grown in 24-well tissue culture plates in Dulbecco's Modified Eagle Media with 10% fetal bovine serum, MEM non-essential amino acids, Penicillin-Streptomycin and Geneticin. On the day of test procedure, growth medium was replaced with preincubation media (Dulbecco's Modified Eagle Media) and incubated for 30 minutes at 37° C. […] Isoproterenol (10^-5 M) was used as an internal standard for comparison of activity. Cells were incubated at 37° C. on a rocker for 30 min with the β3-AR transfected cells and 15 min with β1-AR and β2-AR transfected cells. Incubation was stopped by the addition of 0.2N HCl and the acid was neutralized with 2.5N NaOH. The plates, containing the cells and neutralized media, were stored at -20 ° C. until ready to test for cAMP using the SPA test kit (Amersham). Data Analysis and Results: Data collected from the SPA test procedure were analyzed as percent of the maximal isoproterenol response at 10^-5 M. Activity curves were plotted using the SAS statistical and graphics software. […] IA=% activity compound % activity isoproterenol
A general note: Cyclic AMP is a second messenger, typically raised through Gs and lowered through Gi signalling.

T1 sequence (P13945 whole entry): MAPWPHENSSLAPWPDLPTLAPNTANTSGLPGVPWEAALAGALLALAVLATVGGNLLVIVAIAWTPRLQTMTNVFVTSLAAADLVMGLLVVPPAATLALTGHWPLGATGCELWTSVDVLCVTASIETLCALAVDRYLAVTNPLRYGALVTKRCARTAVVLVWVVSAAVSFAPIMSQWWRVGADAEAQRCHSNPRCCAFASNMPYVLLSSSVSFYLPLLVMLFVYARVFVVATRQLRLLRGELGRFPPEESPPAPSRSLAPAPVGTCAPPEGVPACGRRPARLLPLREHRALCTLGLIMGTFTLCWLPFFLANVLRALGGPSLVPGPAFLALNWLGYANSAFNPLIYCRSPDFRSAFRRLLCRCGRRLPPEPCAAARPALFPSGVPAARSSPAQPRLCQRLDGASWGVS

On to `COC(=O)C(Cc1ccccc1)NC1=NS(=O)(=O)N=C1Nc1ccc(N2CCC(NCC(O)c3ccc(O)c(NS(C)(=O)=O)c3)CC2)cc1` (hydrate or solvate) [Example 6, Methyl 2-{[4-(4-{4-[((2R)-2-hydroxy-2-{4-hydroxy-3-[(methylsulfonyl)amino]phenyl}ethyl)amino]piperidin-1-yl}anilino)-1,1-dioxido-1,2,5-thiadiazol-3-yl]amino}-3-yl]amino}-3-phenylpropanoate], for which the melting point (as a rule, the temperature of the solid-liquid transition) was 210 °C (dec.).
On to `COC(=O)CNC1=NS(=O)(=O)N=C1Nc1ccc(N2CCC(NC[C@H](O)c3ccc(O)c(NS(C)(=O)=O)c3)CC2)cc1` [Example 3, Methyl {[4-(4-{4-[((2R)-2-hydroxy-2-{4-hydroxy-3-[(methylsulfonyl)amino]phenyl}ethyl)amino]piperidin-1-yl}anilino)-1,1-dioxido1,2,5-thiadiazol-3-yl]amino}acetate], for which the melting point is 120 °C (dec.). Also, on human β3-AR, it took 99 nM to reach a half-maximal effect (EC50) and the “IA(β3)” value was 0.40.
Take `O=S1(=O)N=C(NCCc2ccc(F)cc2)C(Nc2ccc(N3CCC(NC[C@H](O)COc4ccc(O)cc4)CC3)cc2)=N1` [Example 5, 4-((2S)-3-[1-(4-{4-[2-(4-Fluoro-phenyl)-ethylamino]-1,1-dioxo-1H-1.lambda(6).-[1,2,5]thiadiazol-3-ylamino}-phenyl)-piperidin-4-ylamino]-2-hydroxy-propoxy}-phenol]: at human β3-AR, it took 8 nM to reach a half-maximal effect (EC50) and the “IA(β3)” value is on record as 1.0.
Turning to `CCCCCCCCNC1=NS(=O)(=O)N=C1Nc1ccc(N2CCC(NC[C@H](O)COc3ccc(O)cc3)CC2)cc1` [Example 4, 4-((2S)-2-Hydroxy-3-{1-[4-(4-octylamino-1,1-dioxo-1H-1.lambda(6)-[1,2,5]thiadiazol-3ylamimo)-phenyl]-piperidin-4-ylamino}-propoxy)-phenol], the melting point lay in the range of 198 to 204 °C. At human β3-AR, the midpoint of the response, the EC50, lay at 4 nM and the “IA(β3)” value worked out at 0.96.
As to `COC(=O)[C@@H](Cc1ccccc1)Nc1c(Nc2ccc(N3CCC(NC[C@H](O)c4ccc(O)c(NS(C)(=O)=O)c4)CC3)cc2)c(=O)c1=O` (hydrate or solvate) [Example 2, Methyl (2R)-2-{[2-(4-{4-[((2R)-2-hydroxy-2-{4-hydroxy-3-[(methylsulfonyl)amino]phenyl}ethyl)amino]piperidin-1-yl}anilino)-3,4-dioxocyclobut-1-en-1-yl]amino}-3-phenylpropanoate], the melting point is 240 °C (dec.).
Regarding `COC(=O)C(Cc1ccccc1)NC1=NS(=O)(=O)N=C1Nc1ccc(N2CCC(NCC(O)c3ccc(O)c(NS(C)(=O)=O)c3)CC2)cc1` [Example 6, Methyl 2-{[4-(4-{4-[((2R)-2-hydroxy-2-{4-hydroxy-3-[(methylsulfonyl)amino]phenyl}ethyl)amino]piperidin-1-yl}anilino)-1,1-dioxido-1,2,5-thiadiazol-3-yl]amino}-3-yl]amino}-3-phenylpropanoate], on human β3-AR, the EC50 (as a rule, the concentration at which the effect is half-maximal) is 42 nM and the “IA(β3)” value is 0.9.
On to `COc1ccc(CCNC2=NS(=O)(=O)N=C2Nc2ccc(N3CCC(NC[C@H](O)COc4ccc(O)cc4)CC3)cc2)cc1` [Example 1], for which, at human β3-AR, a half-maximal effect (EC50) was put at 633 nM and the “IA(β3)” value was found to be 0.69.
For `COC(=O)[C@@H](Cc1ccccc1)Nc1c(Nc2ccc(N3CCC(NC[C@H](O)c4ccc(O)c(NS(C)(=O)=O)c4)CC3)cc2)c(=O)c1=O` [Example 2, Methyl (2R)-2-{[2-(4-{4-[((2R)-2-hydroxy-2-{4-hydroxy-3-[(methylsulfonyl)amino]phenyl}ethyl)amino]piperidin-1-yl}anilino)-3,4-dioxocyclobut-1-en-1-yl]amino}-3-phenylpropanoate] the same measures were 200 nM and 0.80.
